{
  "source": "patent US20220281848A1",
  "about": "“PYRAZOLE-SUBSTITUTED PYRROLIDINONES AS HERBICIDES” (FMC Corporation, priority 2019, published 2022)",
  "assay_type_in_all_cases": "in vivo",
  "key": {"[1]": {"system": "barnyardgrass (Echinochloa crus-galli, ECHCG)", "experiment": "Test A pre-emergence, barnyardgrass", "details": "after 13 d", "method_in_brief": "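Damage rated 0–100 (100 = total) 13 d after spraying. Application was one day post-sowing at 15.625, 62.5 or 250 g/ha, formulated in 50:50 acetone/water plus 0.5% Tween 20. Pots held in glasshouse at 24/16 °C day/night, 14 h light, 65% humidity, watered twice daily.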"}, "corn (Zea mays, ZEAMX)": {"system": "corn (Zea mays, ZEAMX)", "experiment": "Test A post-emergence, corn", "details": "after 13 d", "method_in_brief": "(§1)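 Post-emergence spray at 8 d after sowing; doses 15.625, 62.5 or 250 g/ha in acetone/water 50:50 + 0.5% Tween 20. Glasshouse 24/16 °C, 14 h light, 65% RH, watered twice daily. Visual damage rating 0–100 at 13 d.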"}, "plants": {"system": "plants", "experiment": "Test D post-emergence, other plants of Tables D2 and D4", "details": "post-emergence", "method_in_brief": "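Seeds treated with herbicide safener; sown in soil; glasshouse, 16 h light, 65% humidity. Sprayed day 1 (pre) or ~day 12 (post). Spray in 0.2% v/v adjuvant. Scored 0–100 damage: 20 DAA pre, 15 d post.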"}, "[2]": {"system": "barnyardgrass (Echinochloa crus-galli, ECHCG)", "experiment": "Test A post-emergence, barnyardgrass", "details": "after 13 d", "method_in_brief": "as §1"}, "maize": {"system": "maize", "experiment": "Test D pre-emergence, maize seed treated with a herbicide safener", "details": "ZEAMX, preemergent, 20 DAA", "method_in_brief": "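Damage was rated visually from 0 (none) to 100 (total), at 20 DAA for pre-emergence and 15 d for post-emergence. Plants grew from safener-treated seed in a glasshouse at 24/18° C. or 20/16° C. day/night, 65% humidity, watered twice daily.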"}},
  "data": [
    {"smiles": "CCn1nc([C@H]2CN(C)C(=O)[C@@H]2C(=O)Nc2cccc(F)c2F)c2c(F)cccc21", "note": "[Compound 7]", "values": [
      {"measurement": "damage to plant (100=total damage; 0=no damage) ECHCG", "setting": "[1]; Pre-Emergence at 15.625 g/ha", "result": 70},
      {"measurement": "damage to plant (100=total damage; 0=no damage) ECHCG", "setting": "[1]; Pre-Emergence at 62.5 g/ha", "result": 80},
      {"measurement": "damage to plant (100=total damage; 0=no damage) ECHCG", "setting": "[1]; Pre-Emergence at 250 g/ha", "result": 90},
      {"measurement": "damage to plant (100=total damage; 0=no damage) ZEAMX", "setting": "corn (Zea mays, ZEAMX); Post-Emergence at 15.625 g/ha", "result": 20},
      {"measurement": "damage to plant (100=total damage; 0=no damage) ZEAMX", "setting": "corn (Zea mays, ZEAMX); Post-Emergence at 62.5 g/ha", "result": 40},
      {"measurement": "damage to plant (100=total damage; 0=no damage) ZEAMX", "setting": "corn (Zea mays, ZEAMX); Post-Emergence at 250 g/ha", "result": 80},
      {"measurement": "damage to plant (100=total damage to plant; 0=no damage to plant), ABUTH", "setting": "plants; rate 130, evaluated after 15 d", "result": 0},
      {"measurement": "damage to plant (100=total damage to plant; 0=no damage to plant), ABUTH", "setting": "plants; rate 250, evaluated after 15 d", "result": 10},
      {"measurement": "damage to plant (100=total damage to plant; 0=no damage to plant), ABUTH", "setting": "plants; rate 500, evaluated after 15 d", "result": 20},
      {"measurement": "damage to plant (100=total damage to plant; 0=no damage to plant), AMARE", "setting": "plants; rate 130, evaluated after 15 d", "result": 0},
      {"measurement": "damage to plant (100=total damage to plant; 0=no damage to plant), AMARE", "setting": "plants; rate 250, evaluated after 15 d", "result": 0},
      {"measurement": "damage to plant (100=total damage to plant; 0=no damage to plant), AMARE", "setting": "plants; rate 500, evaluated after 15 d", "result": 10},
      {"measurement": "damage to plant (100=total damage to plant; 0=no damage to plant), BIDPI", "setting": "plants; rate 130, evaluated after 15 d", "result": 0},
      {"measurement": "damage to plant (100=total damage to plant; 0=no damage to plant), BIDPI", "setting": "plants; rate 250, evaluated after 15 d", "result": 0},
      {"measurement": "damage to plant (100=total damage to plant; 0=no damage to plant), BIDPI", "setting": "plants; rate 500, evaluated after 15 d", "result": 0},
      {"measurement": "damage to plant (100=total damage to plant; 0=no damage to plant), BRAPL", "setting": "plants; rate 130, evaluated after 15 d", "result": 0},
      {"measurement": "damage to plant (100=total damage to plant; 0=no damage to plant), BRAPL", "setting": "plants; rate 250, evaluated after 15 d", "result": 80},
      {"measurement": "damage to plant (100=total damage to plant; 0=no damage to plant), BRAPL", "setting": "plants; rate 500, evaluated after 15 d", "result": 80},
      {"measurement": "damage to plant (100=total damage to plant; 0=no damage to plant), CYPES", "setting": "plants; rate 130, evaluated after 15 d", "result": 0},
      {"measurement": "damage to plant (100=total damage to plant; 0=no damage to plant), CYPES", "setting": "plants; rate 250, evaluated after 15 d", "result": 0},
      {"measurement": "damage to plant (100=total damage to plant; 0=no damage to plant), CYPES", "setting": "plants; rate 500, evaluated after 15 d", "result": 0},
      {"measurement": "damage to plant (100=total damage to plant; 0=no damage to plant), DIGSA", "setting": "plants; rate 130, evaluated after 15 d", "result": 0},
      {"measurement": "damage to plant (100=total damage to plant; 0=no damage to plant), DIGSA", "setting": "plants; rate 250, evaluated after 15 d", "result": 80},
      {"measurement": "damage to plant (100=total damage to plant; 0=no damage to plant), DIGSA", "setting": "plants; rate 500, evaluated after 15 d", "result": 80},
      {"measurement": "damage to plant (100=total damage to plant; 0=no damage to plant), ECHCG", "setting": "plants; rate 130, evaluated after 15 d", "result": 20},
      {"measurement": "damage to plant (100=total damage to plant; 0=no damage to plant), ECHCG", "setting": "plants; rate 250, evaluated after 15 d", "result": 70},
      {"measurement": "damage to plant (100=total damage to plant; 0=no damage to plant), ECHCG", "setting": "plants; rate 500, evaluated after 15 d", "result": 70},
      {"measurement": "damage to plant (100=total damage to plant; 0=no damage to plant), EPHHL", "setting": "plants; rate 130, evaluated after 15 d", "result": 0},
      {"measurement": "damage to plant (100=total damage to plant; 0=no damage to plant), EPHHL", "setting": "plants; rate 250, evaluated after 15 d", "result": 20},
      {"measurement": "damage to plant (100=total damage to plant; 0=no damage to plant), EPHHL", "setting": "plants; rate 500, evaluated after 15 d", "result": 40},
      {"measurement": "damage to plant (100=total damage to plant; 0=no damage to plant), GLXMA", "setting": "plants; rate 130, evaluated after 15 d", "result": 0},
      {"measurement": "damage to plant (100=total damage to plant; 0=no damage to plant), GLXMA", "setting": "plants; rate 250, evaluated after 15 d", "result": 0},
      {"measurement": "damage to plant (100=total damage to plant; 0=no damage to plant), GLXMA", "setting": "plants; rate 500, evaluated after 15 d", "result": 0},
      {"measurement": "damage to plant (100=total damage to plant; 0=no damage to plant), IPOHE", "setting": "plants; rate 130, evaluated after 15 d", "result": 0},
      {"measurement": "damage to plant (100=total damage to plant; 0=no damage to plant), IPOHE", "setting": "plants; rate 250, evaluated after 15 d", "result": 0},
      {"measurement": "damage to plant (100=total damage to plant; 0=no damage to plant), IPOHE", "setting": "plants; rate 500, evaluated after 15 d", "result": 0},
      {"measurement": "damage to plant (100=total damage to plant; 0=no damage to plant), ORYSA", "setting": "plants; rate 130, evaluated after 15 d", "result": 0},
      {"measurement": "damage to plant (100=total damage to plant; 0=no damage to plant), ORYSA", "setting": "plants; rate 250, evaluated after 15 d", "result": 0},
      {"measurement": "damage to plant (100=total damage to plant; 0=no damage to plant), ORYSA", "setting": "plants; rate 500, evaluated after 15 d", "result": 0},
      {"measurement": "damage to plant (100=total damage to plant; 0=no damage to plant), PANMI", "setting": "plants; rate 130, evaluated after 15 d", "result": 0},
      {"measurement": "damage to plant (100=total damage to plant; 0=no damage to plant), PANMI", "setting": "plants; rate 250, evaluated after 15 d", "result": 0},
      {"measurement": "damage to plant (100=total damage to plant; 0=no damage to plant), PANMI", "setting": "plants; rate 500, evaluated after 15 d", "result": 0},
      {"measurement": "damage to plant (100=total damage to plant; 0=no damage to plant), SETFA", "setting": "plants; rate 130, evaluated after 15 d", "result": 0},
      {"measurement": "damage to plant (100=total damage to plant; 0=no damage to plant), SETFA", "setting": "plants; rate 250, evaluated after 15 d", "result": 70},
      {"measurement": "damage to plant (100=total damage to plant; 0=no damage to plant), SETFA", "setting": "plants; rate 500, evaluated after 15 d", "result": 70},
      {"measurement": "damage to plant (100=total damage to plant; 0=no damage to plant), SIDSP", "setting": "plants; SIDSP, rate 500, evaluated after 15 d", "result": 30},
      {"measurement": "damage to plant (100=total damage to plant; 0=no damage to plant), SORVU", "setting": "plants; rate 130, evaluated after 15 d", "result": 0},
      {"measurement": "damage to plant (100=total damage to plant; 0=no damage to plant), SORVU", "setting": "plants; rate 250, evaluated after 15 d", "result": 0},
      {"measurement": "damage to plant (100=total damage to plant; 0=no damage to plant), SORVU", "setting": "plants; rate 500, evaluated after 15 d", "result": 60},
      {"measurement": "damage to plant (100=total damage; 0=no damage) ECHCG", "setting": "[2]; Post-Emergence at 15.625 g/ha", "result": 60},
      {"measurement": "damage to plant (100=total damage; 0=no damage) ECHCG", "setting": "[2]; Post-Emergence at 62.5 g/ha", "result": 80},
      {"measurement": "damage to plant (100=total damage; 0=no damage) ECHCG", "setting": "[2]; Post-Emergence at 250 g/ha", "result": 80},
      {"measurement": "damage to plant (100=total damage to plant; 0=no damage to plant), ZEAMX", "setting": "maize; rate 15", "result": 0},
      {"measurement": "damage to plant (100=total damage to plant; 0=no damage to plant), ZEAMX", "setting": "maize; rate 30", "result": 0},
      {"measurement": "damage to plant (100=total damage to plant; 0=no damage to plant), ZEAMX", "setting": "maize; rate 60", "result": 0},
      {"measurement": "damage to plant (100=total damage to plant; 0=no damage to plant), ZEAMX", "setting": "maize; rate 130", "result": 0},
      {"measurement": "damage to plant (100=total damage to plant; 0=no damage to plant), ZEAMX", "setting": "maize; rate 250", "result": 0},
      {"measurement": "damage to plant (100=total damage to plant; 0=no damage to plant), ZEAMX", "setting": "maize; rate 500", "result": 10}
    ]}
  ]
}
